Source: US7790898B2, “Substituted 3-phenylpiperidine compounds, their preparation and use” (Gruenenthal GmbH, priority 2004, dated 2010)

System: L-calcium channel benzothiazepine binding site
Experiment: Binding at the L-calcium channel benzothiazepine binding site (diltiazem binding)
Settings: 10 μM test compound; [3H]-cis-(+)-diltiazem 5 nM; rat cerebral cortex membranes; 20 minutes at 25° C.
Procedure: Biological Data: Investigations on Binding at the L-Calcium Channel Benzothiazepine Binding Site (Diltiazem Binding)
The biological membrane material was isolated from rat cerebral cortex. [^3H]-cis-(+)-diltiazem (5 nM in the batch) was used as ligand. Incubation was for 20 minutes at 25° C. The radioactivity measured in the presence of (±)-diltiazem (10^−6 M in the batch) is defined as the non-specific binding. The non-bound fraction of the radioactive ligand was separated after completion of the incubation, using a filtration process through Whatman glass fiber GF/B membranes. After being washed, the membranes were then measured in a β-counter. The method was developed based on the publication by Schoemaker and Langer (H. Schoemaker and S. Z. Langer (1985) Eur. J. Pharmacol. 111, 273-277).

Compound	Diltiazem binding [10 μM] % inhibition [%]
COc1cccc(C2(O)CCCN(Cc3cccc(F)c3)C2)c1.Cl (centres unmarked) [Example 32, 1-(3-fluorobenzyl)-3-(3-methoxyphenyl)-piperidine-3-ol hydrochloride]	83.7
COc1cccc(C2(O)CCCN(CCOc3ccccc3)C2)c1.Cl (centres unmarked) [Example 41, 3-(3-methoxyphenyl)-1-(2-phenoxy-ethyl)-piperidine-3-ol hydrochloride]	92.7
COc1cccc(C2(O)CCCN(CC(c3ccccc3)c3ccccc3)C2)c1.Cl (centres unmarked) [Example 48, 1-(2,2-diphenyl-ethyl)-3-(3-methoxyphenyl)-piperidine-3-ol hydrochloride]	88.2
COc1cccc(C2(O)CCCN(Cc3ccc(C#N)cc3)C2)c1.Cl (centres unmarked) [Example 44, 4-[3-hydroxy-3-(3-methoxyphenyl)-piperidine-1-ylmethyl]-benzonitrile hydrochloride]	52.3
COc1cccc(C2(O)CCCN(Cc3cc(C(F)(F)F)cc(C(F)(F)F)c3)C2)c1.Cl (centres unmarked) [Example 52, 1-(3,5-bis-trifluoromethyl-benzyl)-3-(3-methoxyphenyl)-piperidine-3-ol hydrochloride]	75.9
COc1ccc(CN2CCCC(O)(c3cccc(C)c3)C2)cc1.Cl (centres unmarked) [Example 43, 1-(4-methoxybenzyl)-3-(3-methylphenyl)-piperidine-3-ol hydrochloride]	55
COc1cccc(C2(O)CCCN(Cc3ccc(Br)cc3)C2)c1.Cl (centres unmarked) [Example 34, 1-(4-bromobenzyl)-3-(3-methoxyphenyl)-piperidine-3-ol hydrochloride]	78.7
COc1cccc(C2(O)CCCN(Cc3cccc(Br)c3)C2)c1.Cl (centres unmarked) [Example 49, 1-(3-bromobenzyl)-3-(3-methoxyphenyl)-piperidine-3-ol hydrochloride]	90.4
COc1cccc(C2(O)CCCN(Cc3ccc(Cl)c([N+](=O)[O-])c3)C2)c1.Cl (centres unmarked) [Example 51, 1-(4-chloro-3-nitro-benzyl)-3-(3-methoxyphenyl)-piperidine-3-ol hydrochloride]	81.4
COc1cccc(C2(O)CCCN(Cc3ccc(F)cc3)C2)c1.Cl (centres unmarked) [Example 33, 1-(4-fluorobenzyl)-3-(3-methoxyphenyl)-piperidine-3-ol hydrochloride]	95
COc1cccc(C2(O)CCCN(Cc3ccc([N+](=O)[O-])cc3)C2)c1.Cl (centres unmarked) [Example 42, 3-(3-methoxyphenyl)-1-(4-nitrobenzyl)-piperidine-3-ol hydrochloride]	50
COc1cccc(C2(O)CCCN(Cc3ccc(C)c([N+](=O)[O-])c3)C2)c1.Cl (centres unmarked) [Example 50, 3-(3-methoxyphenyl)-1-(4-methyl-3-nitro-benzyl)-piperidine-3-ol hydrochloride]	73.8
COc1cccc(C2(O)CCCN(Cc3cccc(C(F)(F)F)c3)C2)c1.Cl (centres unmarked) [Example 40, 3-(3-methoxyphenyl)-1-(3-trifluoromethylbenzyl)-piperidine-3-ol hydrochloride]	85.9
COc1cccc(C2(O)CCCN(CCc3ccccc3)C2)c1.Cl (centres unmarked) [Example 47, 3-(3-methoxyphenyl)-1-phenethyl-piperidine-3-ol hydrochloride]	79.4
COc1cccc(C2(O)CCCN(C(=O)c3ccc(C)cc3)C2)c1 (centres unmarked) [Example 9, [3-hydroxy-3-(3-methoxyphenyl)-piperidine-1-yl]-p-tolyl-methanone]	55.8
COc1cccc(C2(O)CCCN(Cc3ccc(Cl)c(Cl)c3)C2)c1.Cl (centres unmarked) [Example 37, 1-(3,4-dichlorbenzyl)-3-(3-methoxyphenyl)-piperidine-3-ol hydrochloride]	80.7
COc1cccc(C2(O)CCCN(Cc3ccc(C)cc3)C2)c1.Cl (centres unmarked) [Example 39, 3-(3-methoxyphenyl)-1-(4-methylbenzyl)-piperidine-3-ol hydrochloride]	76
COc1cccc(C2(O)CCCN(Cc3cc(F)cc(F)c3)C2)c1.Cl (centres unmarked) [Example 36, 1-(3,5-difluorobenzyl)-3-(3-methoxyphenyl)-piperidine-3-ol hydrochloride]	57.4
COc1cccc(C2(O)CCCN(Cc3cccs3)C2)c1.Cl (centres unmarked) [Example 46, 3-(3-methoxyphenyl)-1-thiophen-2-ylmethyl-piperidine-3-ol hydrochloride]	81.8

Same assay, conditions: radioligand; rat cerebral cortex membranes; N=3, mean ±SEM; read-out: KD value for this high affinity binding site

Compound	Kd [nM]
[^3H]-cis-(+)-diltiazem [reference compound]	4.1 ± 0.75
